What was measured:
[1] = system: Human keratinocytes (Hacat); test: Hyaluronic acid and hyaluronidase levels in UVB-irradiated human keratinocytes; assay type: cell-based; details: UVB 90 mJ/cm^2, 24 h, 1 µM
Experimental: Human keratinocytes (Hacat) were cultured routinely in DMEM medium containing 10% FBS within a 5% CO2 incubator.

[2] = system: Th2-related factors Il4, Il13, Il31 and inflammatory factors Tslp, Tnf, Il1; test: MC903-induced ear atopic dermatitis mouse model, Compound 1 ointment: Q-PCR of ear; assay type: in vivo; parameters: unit not given here; details: ear mRNA, AD mice, 1% ointment
Experimental: Except for the Normal group, all other groups underwent AD modeling: 20 µL of MC903 solution (also known as calcipotriol, purchased from Shanghai Yuanye Biotechnology Co., Ltd., used for inducing atopic models) was applied to each mouse's ears once daily for 14 consecutive days to induce the atopic dermatitis model. […] Measure ear thickness changes every 2 days using an electronic caliper before modeling and after treatment initiation.

[3] = system: inflammatory cytokines (TNF, IL-6, IL-1); test: LPS mouse sepsis model: Q-PCR of inflammatory factor mRNA in lung, liver and kidney; assay type: in vivo, C57BL/6 mice; details: sepsis mice, 5 mg/kg
Text: Gently pipette to mix the above reagents. The reaction conditions are as follows:
Detailed information is as follows:

[4] = system: MC903-induced atopic dermatitis (AD); test: MC903-induced ear atopic dermatitis mouse model, oral Compound 20: dermatitis score, ear thickness, serum IgE; details: 5 mg/kg
[5] = system: Rat mast cells (RBL-2H3); test: Mast cell degranulation test (anti-DNP IgE / DNP-HSA); assay type: cell-based; details: RBL-2H3, IgE+HSA, 4 h, 1 µM
Experimental: Rat mast cells (RBL-2H3) were cultured routinely in DMEM medium containing 10% FBS within a 5% CO2 incubator. Upon reaching 70-80% confluence, cells were uniformly seeded at a density of 1 × 10^5 cells/mL into 6-well plates (2 mL per well), divided into the following groups: Normal, IgE+HSA, Compound 1 (0.01, 0.1, 1, 10 µM). Mast cells were sensitized with 500 µg/L anti-DNP IgE for 12 h. washed with PBS, and cultured for an additional 12 h with 100 µg/L DNP-HSA. Compound 1 at the specified concentrations was then added. […]

[6] = system: MC903-induced atopic dermatitis (AD); test: MC903-induced ear atopic dermatitis mouse model, Compound 1 ointment: ear thickness and dermatitis score; assay type: in vivo, mice; details: for ear thickness: 1% ointment
Experimental: Weigh white petrolatum, light liquid paraffin, glyceryl monostearate, ethylparaben, and cetyl alcohol. Heat to 65 °C while stirring until dissolved. Slowly add the dissolved active pharmaceutical ingredient (API) while continuing to stir until uniformly mixed. Set aside. • (2) Aqueous Phase Preparation: […] Slowly add the aqueous phase to the oil phase while maintaining 65 °C, homogenize, and continue stirring for 30 min; • (4) Cooling: Stop heating, continue stirring, gradually reduce to room temperature, cool to form an ointment, and fill containers. […] Dissolve these substances in a small amount of propylene glycol, then place the resulting solution into the aforementioned pre-cooled blank ointment base. […] Skin Lesion Severity Score: […] Statistical analysis was performed on the data.

[7] = system: MC903-induced atopic dermatitis (AD); test: MC903-induced AD model on the dorsum of mice, Compound 1 ointment: skin thickness and dermatitis score; assay type: in vivo; parameters: Skin thickness: unit not given here
Experimental: Weigh white petrolatum, light liquid paraffin, glyceryl monostearate, ethylparaben, and cetyl alcohol. Heat to 65 °C while stirring until dissolved. Slowly add the dissolved active pharmaceutical ingredient (API) while continuing to stir until uniformly mixed. Set aside. • (2) Aqueous Phase Preparation: […] Slowly add the aqueous phase to the oil phase while maintaining 65 °C, homogenize, and continue stirring for 30 min; • (4) Cooling: Stop heating, continue stirring, gradually reduce to room temperature, cool to form an ointment, and fill containers. […] Dissolve these substances in a small amount of propylene glycol, then place the resulting solution into the aforementioned pre-cooled blank ointment base. […] Establishment of the AD Model on the Dorsum of Mice and Drug Administration: […] Except for the Normal group, all other groups underwent AD modeling: 48 hours prior to the experiment, hair on the dorsal neck region was meticulously removed using clippers and depilatory cream. […] Model and control group mice received daily application of blank ointment. Twenty-four hours after completing the 14-day modeling period, photographs of skin lesions were taken, and skin lesion and blood samples were collected. Skin Lesion Severity Score: […] Statistical analysis was performed on the data.

[8] = system: inflammatory factors Tslp, Tnf and Th2-associated factors Il4, Il13, Il31; test: MC903-induced ear atopic dermatitis mouse model, oral Compound 20: Q-PCR of ear; details: ear mRNA, AD mice, 5 mg/kg

In the case of C[C@@H]1C[C@H]2[C@@H]3CCC4=CC(=O)C=C[C@]4(C)[C@@]3(F)[C@@H](O)C[C@]2(C)[C@@]1(O)C(=O)CO [Dex, Dexamethasone, reference compound], the Hyaluronidase [1] is reported as 87.14 ± 9.63 ng/mL, the TSLP [2] is reported as 1.30 ±0.17 and the Tnf [2] is reported as 1.38 ±0.22. It also gave a Tnf ([3]; kidney mRNA (relative, Gapdh)) of 6.62±0.68, a Tnf ([3]; liver mRNA (relative, Gapdh)) of 7.04±0.77 and a Tnf ([3]; lung mRNA (relative, Gapdh)) of 8.99 ± 0.76. The atopic dermatitis score ([4]; Day 1) was 0.00±0.00, the ear thickness ([4]; Day 1) was 0.20±0.00 mm and the atopic dermatitis score ([4]; Day 3) was 0.67±0.21. It also gave an ear thickness ([4]; Day 3) of 0.23±0.00 mm, an atopic dermatitis score ([4]; Day 5) of 1.50±0.22 and an ear thickness ([4]; Day 5) of 0.25±0.00 mm. It also gave an atopic dermatitis score ([4]; Day 7) of 2.00±0.26, an ear thickness ([4]; Day 7) of 0.26±0.00 mm and an atopic dermatitis score ([4]; Day 8) of 2.83±0.31. The ear thickness ([4]; Day 8) was 0.26±0.00 mm, the atopic dermatitis score ([4]; Day 9) was 3.00±0.00 and the ear thickness ([4]; Day 9) was 0.27±0.00 mm. For the same compound, the atopic dermatitis score ([4]; Day 10) was 3.17±0.17, the ear thickness ([4]; Day 10) was 0.28±0.00 mm and the atopic dermatitis score ([4]; Day 11) was 3.50±0.22. The ear thickness ([4]; Day 11) was 0.27±0.00 mm, the atopic dermatitis score ([4]; Day 12) was 3.00±0.26 and the ear thickness ([4]; Day 12) was 0.27±0.00 mm. For the same compound, the atopic dermatitis score ([4]; Day 13) was 2.67±0.21, the ear thickness ([4]; Day 13) was 0.27±0.00 mm and the atopic dermatitis score ([4]; Day 14) was 2.00±0.26. It also gave an ear thickness ([4]; Day 14) of 0.26±0.00 mm, an IgE ([4]; serum, AD mice) of 191.65 ± 39.26 ng/mL and a β-Glucosaminidase [5] of 9.78 ± 0.01 ng/mL. For the same compound, the ear thickness ([6]; Day 1) was 0.15±0.00 mm, the ear thickness ([6]; Day 3) was 0.18±0.00 mm and the ear thickness ([6]; Day 5) was 0.22±0.00 mm. It also gave an ear thickness ([6]; Day 7) of 0.24±0.01 mm, an ear thickness ([6]; Day 8) of 0.24±0.00 mm and an ear thickness ([6]; Day 9) of 0.24±0.01 mm. The ear thickness ([6]; Day 10) was 0.25±0.01 mm, the ear thickness ([6]; Day 11) was 0.26±0.01 mm and the ear thickness ([6]; Day 12) was 0.28±0.00 mm. For the same compound, the ear thickness ([6]; Day 13) was 0.27±0.01 mm, the ear thickness ([6]; Day 14) was 0.26±0.01 mm and the “Dermatitis Score” value ([6]; ear, 1% ointment for 7 days, score max 12) was 3.50±0.22. For the same compound, the “Dermatitis Score” value ([7]; back, 1% ointment for 7 days, score max 12) was 4.17±0.31, the Skin thickness ([7]; dorsal region, AD mice, 1% ointment) was 30.44±0.62 and the TSLP [8] was 2.13±0.26. It also gave a Tnf [8] of 2.30±0.36.

From patent EP4813381A1, “PHARMACEUTICAL USE OF GUAIANE SESQUITERPENE DERIVATIVE” (Nanjing University Of Chinese Medicine, priority 2023, dated 2025)
